Measured values published in US20110224208A1, “NOVEL INHIBITORS OF FLAVIVIRUS REPLICATION” (KATHOLIEKE UNIVERSITEIT LEUVEN, K.U. LEUVEN R&D, priority 2008, published 2011).
≈ marks a conversion by molar mass, not a printed value.

Experiments:
[1] = system: HCV replicon I389luc-ubi-neo/NS3-3'/5.1; test: Anti-HCV replicon assay (luciferase activity) in Huh-5-2 cells; assay type: cell-based, Hepatitis C virus; conditions: concentration required to inhibit luciferase activity in the replicon system by 50%
Method in brief: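 Huh-5-2 cells carrying the luciferase HCV replicon, seeded 24 h, then exposed to serial compound dilutions without G418 for 72 h at 37° C, 5% CO2. Replication read as luciferase luminescence, expressed as percentage of untreated cultures; culture density measured in parallel by MTS.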

[2] = Proliferation of exponentially growing Huh-5-2 cells (MTS method); conditions: human, CC50, concentration required to inhibit the proliferation of exponentially growing Huh-5-2 cells by 50%; Table 2
Experimental: Cells were seeded at a density of 7000 cells per well in 96 well View Plate™ (Packard) in medium containing the same components as described above, except for G418. Cells were allowed to adhere and proliferate for 24 hr. At that time, culture medium was removed and serial dilutions of the test compounds were added in culture medium lacking G418. Interferon alfa 2a (500 IU) was included as a positive control. Plates were further incubated at 37° C. and 5% CO2 for 72 hours. Replication of the HCV replicon in Huh-5 cells results in luciferase activity in the cells. Luciferase activity is measured by adding 50 μl of 1×Glo-lysis buffer (Promega) for 15 minutes followed by 50 ul of the Steady-Glo Luciferase assay reagent (Promega). Luciferase activity is measured with a luminometer and the signal in each individual well is expressed as a percentage of the untreated cultures. […] Instead the density of the culture is measured by means of the MTS method (Promega).

[3] = Hepatitis C virus, Huh-5-2, 72 h

Structure (SMILES)	IC50 [1, 3]	CC50 at 72 h [2]	IC50 ([1]; 72 hours)
COCCN1C(=O)c2ccccc2C(C(=O)Nc2ccc(CN3CCCCC3)cc2)C1c1cccs1 (centres unmarked) [C216, 2-(2-methoxyethyl)-1-oxo-N-(4-(piperidin-1-ylmethyl)phenyl)-3-(thiophen-2-yl)-1,2,3,4-tetrahydroisoquinoline-4-carboxamide]	2.57 µg/mL (≈ 5.1 µM)	10.9 µg/mL (≈ 21.7 µM)	
COCCN1C(=O)c2ccccc2C(C(=O)Nc2ccc(Cl)c(OC)c2)C1c1cccs1 (centres unmarked) [C111, N-(4-chloro-3-methoxyphenyl)-2-(2-methoxyethyl)-1-oxo-3-(thiophen-2-yl)-1,2,3,4-tetrahydroisoquinoline-4-carboxamide]	0.17 µg/mL (≈ 0.361 µM)	86.7 µg/mL (≈ 184 µM)	
COCCN1C(=O)c2ccccc2C(C(=O)Nc2cccc(-n3cccn3)c2)C1c1cccs1 (centres unmarked) [C172, N-(3-(1H-pyrazol-1-yl)phenyl)-2-(2-methoxyethyl)-1-oxo-3-(thiophen-2-yl)-1,2,3,4-tetrahydroisoquinoline-4-carboxamide]	0.09 µg/mL (≈ 0.19 µM)	14.5 µg/mL (≈ 30.6 µM)	
COCCN1C(=O)c2ccccc2C(C(=O)Nc2ccc(C#N)cc2)C1c1cccs1 (centres unmarked) [C20, N-(4-cyanophenyl)-2-(2-methoxyethyl)-1-oxo-3-(thiophen-2-yl)-1,2,3,4-tetrahydroisoquinoline-4-carboxamide]	0.4 µg/mL (≈ 0.927 µM)	42 µg/mL (≈ 97.3 µM)	
COCCN1C(=O)c2ccccc2C(C(=O)Nc2cccc(C(F)(F)F)c2)C1c1cccs1 (centres unmarked) [C110, 2-(2-methoxyethyl)-1-oxo-3-(thiophen-2-yl)-N-(3-(trifluoromethyl)phenyl)-1,2,3,4-tetrahydroisoquinoline-4 carboxamide]	1.45 µg/mL (≈ 3.06 µM)	79.3 µg/mL (≈ 167 µM)	
COCCN1C(=O)c2cccc(C)c2C(C(=O)Nc2cccc(OC)c2)C1c1cccs1 (centres unmarked) [C39, 2-(2-Methoxyethyl)-N-(3-methoxyphenyl)-5-methyl-1-oxo-3-(thiophen-2-yl)-1,2,3,4-tetrahydroisoquinoline-4-carboxamide]	1.3 µg/mL (≈ 2.89 µM)	80 µg/mL (≈ 178 µM)	
COCCN1C(=O)c2ccccc2C(C(=O)Nc2ccc(-c3nncn3C)cc2)C1c1cccs1 (centres unmarked) [C214, 2-(2-methoxyethyl)-N-(4-(4-methyl-4H-1,2,4-triazol-3-yl)phenyl)-1-oxo-3-(thiophen-2-yl)-1,2,3,4-tetrahydroisoquinoline-4-carboxamide]	5.29 µg/mL (≈ 10.8 µM)	85.3 µg/mL (≈ 175 µM)	
COCCN1C(=O)c2ccccc2C(C(=O)Nc2cccc(OC)c2)C1c1ccncc1 (centres unmarked) [C30, 2-(2-Methoxyethyl)-N-(3-methoxyphenyl)-1-oxo-3-(pyridin-4-yl)-1,2,3,4-tetrahydroisoquinoline-4-carboxamide]	36.7 µg/mL (≈ 85 µM)	70.3 µg/mL (≈ 163 µM)	
COCCN1C(=O)c2ccccc2C(C(=O)Nc2ccc(CO)cc2)C1c1cccs1 (centres unmarked) [C181, N-(4-(hydroxymethyl)phenyl)-2-(2-methoxyethyl)-1-oxo-3-(thiophen-2-yl)-1,2,3,4-tetrahydroisoquinoline-4-carboxamide]	0.25 µg/mL (≈ 0.573 µM)	79.9 µg/mL (≈ 183 µM)	
COCCN1C(=O)c2c(ccc(OC)c2F)C(C(=O)Nc2ccc(-n3cccc3)cc2)C1c1cccs1 (centres unmarked) [C150, N-(4-(1H-pyrrol-1-yl)phenyl)-8-fluoro-7-methoxy-2-(2-methoxyethyl)-1-oxo-3-(thiophen-2-yl)-1,2,3,4-tetrahydroisoquinoline-4-carboxamide]	0.08 µg/mL (≈ 0.154 µM)	> 125 µg/mL	
COCCN1C(=O)c2ccccc2C(C(=O)Nc2ccc(OC3CCOCC3)cc2)C1c1cccs1 (centres unmarked) [C218, 2-(2-methoxyethyl)-1-oxo-N-(4-(tetrahydro-2H-pyran-4-yloxy)phenyl)-3-(thiophen-2-yl)-1,2,3,4-tetrahydroisoquinoline-4-carboxamide]	0.1 µg/mL (≈ 0.197 µM)	83.8 µg/mL (≈ 165 µM)	
COCCN1C(=O)c2ccccc2C(C(=O)Nc2nc3ccc(Cl)cc3s2)C1c1cccs1 (centres unmarked) [C202, N-(6-chlorobenzo[d]thiazol-2-yl)-2-(2-methoxyethyl)-1-oxo-3-(thiophen-2-yl)-1,2,3,4-tetrahydroisoquinoline-4-carboxamide]	0.17 µg/mL (≈ 0.341 µM)	7.89 µg/mL (≈ 15.8 µM)	
COCCN1C(=O)c2ccccc2C(C(=O)Nc2cc(C(=O)OC)n(C)c2)C1c1cccs1 (centres unmarked) [C209, methyl 4-(2-(2-methoxyethyl)-1-oxo-3-(thiophen-2-yl)-1,2,3,4-tetrahydroisoquinoline-4-carboxamido)-1-methyl-1H-pyrrole-2-carboxylate]	0.11 µg/mL (≈ 0.235 µM)	57.8 µg/mL (≈ 124 µM)	
COCCN1C(=O)c2ccccc2C(C(=O)Nc2ccc3ncoc3c2)C1c1cccs1 (centres unmarked) [C219, N-(benzo[d]oxazol-6-yl)-2-(2-methoxyethyl)-1-oxo-3-(thiophen-2-yl)-1,2,3,4-tetrahydroisoquinoline-4-carboxamide]	1.14 µg/mL (≈ 2.55 µM)	91.1 µg/mL (≈ 204 µM)	
COCCN1C(=O)c2cc(OC)ccc2C(C(=O)Nc2cccc(OC)c2)C1c1cccs1 (centres unmarked) [C50, 7-Methoxy-2-(2-methoxyethyl)-N-(3-methoxyphenyl)-1-oxo-3-(thiophen-2-yl)-1,2,3,4-tetrahydroisoquinoline-4-carboxamide]	0.7 µg/mL (≈ 1.5 µM)	76.4 µg/mL (≈ 164 µM)	
COCCN1C(=O)c2ccccc2C(C(=O)Nc2ccc3[nH]c(C)cc3c2)C1c1cccs1 (centres unmarked) [C131, 2-(2-methoxyethyl)-N-(2-methyl-1H-indol-5-yl)-1-oxo-3-(thiophen-2-yl)-1,2,3,4-tetrahydroisoquinoline-4-carboxamide]	1.12 µg/mL (≈ 2.44 µM)	69.7 µg/mL (≈ 152 µM)	
COCCN1C(=O)c2ccccc2C(C(=O)Nc2ccc(Cn3cncn3)cc2)C1c1cccs1 (centres unmarked) [C217, N-(4-((1H-1,2,4-triazol-1-yl)methyl)phenyl)-2-(2-methoxyethyl)-1-oxo-3-(thiophen-2-yl)-1,2,3,4-tetrahydroisoquinoline-4-carboxamide]	0.76 µg/mL (≈ 1.56 µM)	83.7 µg/mL (≈ 172 µM)	
COCCN1C(=O)c2ccccc2C(C(=O)Nc2ccc3c(ccn3C)c2)C1c1cccs1 (centres unmarked) [C123, 2-(2-methoxyethyl)-N-(1-methyl-1H-indol-5-yl)-1-oxo-3-(thiophen-2-yl)-1,2,3,4-tetrahydroisoquinoline-4-carboxamide]	0.25 µg/mL (≈ 0.544 µM)	87.9 µg/mL (≈ 191 µM)	
COCCN1C(=O)c2ccccc2C(C(=O)Nc2ccc3ncsc3c2)C1c1cccs1 (centres unmarked) [C170, N-(benzo[d]thiazol-6-yl)-2-(2-methoxyethyl)-1-oxo-3-(thiophen-2-yl)-1,2,3,4-tetrahydroisoquinoline-4-carboxamide]	0.12 µg/mL (≈ 0.259 µM)	37.7 µg/mL (≈ 81.2 µM)	
COCCN1C(=O)c2ccccc2C(C(=O)Nc2cccc(OC)c2)C1c1cccnc1 (centres unmarked) [C53, 2-(2-Methoxyethyl)-N-(3-methoxyphenyl)-1-oxo-3-(pyridin-3-yl)-1,2,3,4-tetrahydroisoquinoline-4-carboxamide]	52.9 µg/mL (≈ 123 µM)	80.8 µg/mL (≈ 187 µM)	
COCCN1C(=O)c2ccccc2C(C(=O)Nc2ccc3scnc3c2)C1c1cccs1 (centres unmarked) [C81, N-(benzo[d]thiazol-5-yl)-2-(2-methoxyethyl)-1-oxo-3-(thiophen-2-yl)-1,2,3,4-tetrahydroisoquinoline-4-carboxamide]		65 µg/mL (≈ 140 µM)	0.16 µg/mL (≈ 0.345 µM)
COCCN1C(=O)c2ccccc2C(C(=O)Nc2ccc(C#N)c(C(F)(F)F)c2)C1c1cccs1 (centres unmarked) [C221, N-(4-cyano-3-(trifluoromethyl)phenyl)-2-(2-methoxyethyl)-1-oxo-3-(thiophen-2-yl)-1,2,3,4-tetrahydroisoquinoline-4-carboxamide]	0.36 µg/mL (≈ 0.721 µM)	3.52 µg/mL (≈ 7.05 µM)	
